Tests used:
[1] = Cyanocobalamin concentration and appearance of polymer/DMSO compositions and stock solutions, with or without pamoic acid; assay type: physicochemical; settings: pamoic acid present relative to not present
Protocol: Compositions comprising 25% polymer and cyanocobalamin either with or without pamoic acid (i.e., to form a cyanocobalamin pamoate salt) in 100% DMSO were prepared starting from 12 mg/g stock solutions, as shown in Tables 2 and 3.

[2] = within 48 hours of injection; current standard-of-care injectable compositions; cited from earlier work

Substance: cyanocobalamin pamoate
- Dissolution of cyanocobalamin in compositions comprising poly(lactide-co-glycolide) and DMSO [1]: dissolves significantly more effectively

Substance: vitamin B12
- vitamin B12 excreted in urine [2]: ≤ 98%
